Structures are written as SMILES. Where only a bound is given, the exact number is not on record here.

As a reminder, the melting point is the temperature of the solid-liquid transition. In general, EC50 refers to the concentration needed to bring the measured effect to its halfway point.

One data set relates to HCV replicon Luc Neo ET. Nature of the data set: Luc Neo ET Replicon assay. It counts as cell-based, Hepatitis C virus. The note with it: Hepatitis C virus, 72 h, Table 3, titled RdRp enzyme assay results, EC50_Replicon LucneoET; 72 hours with compound, luciferase. The method, then:
Human Hepatoma Huh-7 cell line was maintained in DMEM/HAMF-12 supplemented with 10% SVF, 4 mM glutamine, […] Na pyruvate, 1% penistreptomycine. HCV replicon containing Huh-7 cell lines Huh-9.13 and Luc Neo ET (Reblikon) were maintained in DMEM supplemented with 10% SVF, 2 mM glutamine, and 1×NEAA, 100 U/ml penicillin, and 100 μg/ml streptomycine. Replicon cells were maintained in medium supplemented with 1 mg/ml G418 for replicon Huh-9.13 and 0.5 mg/ml for Luc Neo et replicon unless indicated otherwise. Huh-7 and HCV replicon cell lines were maintained at 37° C. and 5% CO2 in a humidified atmosphere. Cells were dissociated at sub confluence with trypsin EDTA 1×.
Replicon Luc Neo ET is a bicistronic expression constructs (Lohmann et al, 1999, Science 285, 110-113). In brief, the structural genes of the HCV genome were replaced by heterologous sequences; the gene encoding the neomycin phosphotransferase (NPT) and the internal ribosome entry site (IRES) of the encephalomyocarditis virus (EMCV). The bicistronic construct is therefore composed of the following elements: HCV-IRES nucleotides 1-389, the NPT gene, the EMCV-IRES directing translation of downstream HCV sequences from NS2 or NS3 up to the authentic 3′ end of the genome. HCV Polyprotein harbours the cell culture adaptive mutations E1202G, T1280I, K1846T. G418-resistance is only possible with cells containing high amounts of replicon.
Cells were dissociated the day before addition of compounds and seeded in 96 well-plates at a final concentration of 77 777.77 cells.ml^−1.well^−2 in 90 μl final volume of culture medium per well and were maintained at 37° C. and 5% CO2 in a humidified atmosphere for 24 hours. 10 μl of compounds to be tested were added 24 hours after seeding. Final concentration of DMSO was 1%. Cells were incubated in the presence of compounds for 72 hours after which expression of firefly luciferase reporter gene was quantified. Briefly, culture medium was removed and cells were lysed by addition of 100 μl of lysis buffer containing 125 mM Tris Phosphate ph 7.8, 10 mM EDTA, 5 mM DTT, 50% glycerol and 5% Triton. Plates were vortexed 10 min at 1300 rpm. Cell lysat was transferred in OpaqueWhite Assay 96 well Flat Bottom plates. 100 μl of luciferin solution 1× were added to each well. Luciferin solution contained 40 mM Tris Phosphate ph 7.8, 0.2 mM EDTA, 67 mM DTT, 2.14 mM MgCl2, 5.4 mM MgSO4, 4.7×10^−4 M luciferin, 5.3×10^−4 M ATP and 2.7×10^−4 M Acetyl co enzyme A. Luminescence was immediately measured with Berthold Microlumat Plus LB 96V luminometer with an integration of 0.5 sec Inhibition was calculated using the formula:
% inhibition=1−[(RLUsample−RLUbackground)/(RLUsignal−RLUbackground)]

The target of another data set is T1, HCV NS5B genotype 1b (Hepatitis C virus genotype 1b, UniProt Q9WMX2).
T1 construct: The protein was expressed with a 21 amino acid C-terminal deletion to remove transmembrane domain; expressed in transfected cells; host or cells: Huh-7
Briefly: 3D-SCREEN assay (NS5B 3D-Screen platform, luciferase reporter gene). Type of data set: cell-based. The note with it: EC50_3DS_NS5B. The procedure, abridged:
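Huh-7 cells transiently co-transfected with NS5BΔ21/Gal4-DBD, 3D-Sensor peptide I4/VP16 and firefly luciferase reporter. Compounds added 2 h after seeding, 1% DMSO final, 24 h incubation. Luciferase luminescence read; % inhibition relative to no-compound signal.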

[1] abbreviates: Table 1, 3D-SCREEN assay results, Huh-7 cells, 24 hours with compound, firefly luciferase reporter.
Setting [2] is: Table 2, titled Replicon assay results.

On to `CC(=O)OC1=C(C(=O)c2ccc(C)cc2)C(c2ccc(OC(F)(F)F)cc2)N(c2ccc(C)nn2)C1=O` (stereo not drawn) [Example 76, Acetic acid 4-(4-methyl-benzoyl)-1-(6-methyl-pyridazin-3-yl)-2-oxo-5-(4-trifluoromethoxy-phenyl)-2,5-dihydro-1H-pyrrol-3-yl ester], for which the melting point lay in the range of 165 to 166.5 °C. For the same molecule, in the data set with HCV replicon Luc Neo ET, the EC50 was below 10000 nM. The half-maximal effective concentration (EC50) at HCV NS5B genotype 1b (setting [1]) came to 600 nM.

As to `Cc1ccc(N2C(=O)C(O)=C(C(=O)c3ccc(C(C)C)cc3)C2c2ccc(OC(F)(F)F)cc2)cn1` (stereo not drawn) [Example 77, 3-hydroxy-4-(4-isopropyl-benzoyl)-1-(6-methyl-pyridin-3-yl)-5-(4-trifluoromethoxy-phenyl)-1,5-dihydro-pyrrol-2-one], the melting point lay in the range of 214 to 218 °C. For the same molecule, in the data set with HCV replicon Luc Neo ET, the concentration giving a half-maximal response (EC50) is below 10000 nM. Further, the EC50 on HCV NS5B genotype 1b (setting [2]) is below 1000 nM.

As for `Cc1ccc(N2C(=O)C(O)=C(C(=O)c3ccc(-c4ccccc4)cc3)C2c2ccc(OC(F)(F)F)cc2)nn1` (stereo not drawn) [Example 79, 4-(biphenyl-4-carbonyl)-3-hydroxy-1-(6-methyl-pyridazin-3-yl)-5-(4-trifluoromethoxy-phenyl)-1,5-dihydro-pyrrol-2-one], the melting point fell in the range of 226 to 232 °C. For the same molecule, the EC50 with HCV replicon Luc Neo ET is below 10000 nM. Besides, the EC50 at HCV NS5B genotype 1b (setting [1]) is 500 nM.

Regarding `Cc1ccc(N2C(=O)C(O)=C(C(=O)c3ccc(N4CCOCC4)cc3)C2c2ccc(OC(F)(F)F)cc2)nn1` (stereo not drawn) [Example 80, 3-hydroxy-1-(6-methyl-pyridazin-3-yl)-4-(4-morpholin-4-yl-benzoyl)-5-(4-trifluoromethoxy-phenyl)-1,5-dihydro-pyrrol-2-one], the melting point is 234 °C. For the same molecule, in the data set on HCV replicon Luc Neo ET, the half-maximal effective concentration (EC50) was below 10000 nM. In addition, the concentration for a half-maximal effect (EC50) on HCV NS5B genotype 1b (setting [1]) stood at 2000 nM.

For the molecule `Cc1ccc(N2C(=O)C(O)=C(C(=O)c3ccc(C(C)C)cc3)C2c2ccc(OC(F)F)cc2)nn1` (stereo not drawn) [Example 88, 5-(4-difluoromethoxy-phenyl)-3-hydroxy-4-(4-isopropyl-benzoyl)-1-(6-methyl-pyridazin-3-yl)-1,5-dihydro-pyrrol-2-one], the melting point was in the range of 263 to 265 °C. Moreover, in the data set on HCV replicon Luc Neo ET, the EC50 is below 1000 nM. The EC50 at HCV NS5B genotype 1b (setting [2]) is below 1000 nM.

`Cc1ccc(N2C(=O)C(O)=C(C(=O)c3ccc(C(C)C)cc3)C2c2ccc(OC(C)C)cc2)nn1` (stereo not drawn) [Example 89, 3-hydroxy-5-(4-isopropoxy-phenyl)-4-(4-isopropyl-benzoyl)-1-(6-methyl-pyridazin-3-yl)-1,5-dihydro-pyrrol-2-one]: the melting point fell in the range of 280 to 281 °C. Besides, the EC50 with HCV replicon Luc Neo ET is below 10000 nM. Besides, the EC50 at HCV NS5B genotype 1b (setting [2]) is below 10000 nM.

With `Cc1ccc(N2C(=O)C(O)=C(C(=O)c3ccc(C(C)C)cc3)C2c2ccc(OC(C)(C)C)cc2)nn1` (stereo not drawn) [Example 90, 5-(4-tert-butoxyphenyl)-3-hydroxy-4-(4-isopropyl-benzoyl)-1-(6-methyl-pyridazin-3-yl)-1,5-dihydro-pyrrol-2-one], the melting point lay within 276 to 277 °C. In the data set on HCV replicon Luc Neo ET, the EC50 was below 10000 nM. On HCV NS5B genotype 1b (setting [2]), this molecule had an EC50 below 10000 nM.

`CCc1ccc(C(=O)C2=C(O)C(=O)N(c3ccc(C)nn3)C2c2ccc(OC(F)(F)F)cc2)cc1` (stereo not drawn) [Example 102, 4-(4-ethyl-benzoyl)-3-hydroxy-1-(6-methyl-pyridazin-3-yl)-5-(4-trifluoromethoxy-phenyl)-1,5-dihydro-pyrrol-2-one] registered a melting point of 263 to 267 °C. The EC50 in the data set on HCV replicon Luc Neo ET is below 1000 nM. This molecule also registered an EC50 on HCV NS5B genotype 1b (setting [2]) below 1000 nM.

`CCOc1ccc(C2C(C(=O)c3ccc(C(C)C)cc3)=C(O)C(=O)N2c2ccc(C)nn2)cc1` (stereo not drawn) [Example 104, 5-(4-ethoxy-phenyl)-3-hydroxy-4-(4-isopropyl-benzoyl)-1-(6-methyl-pyridazin-3-yl)-1,5-dihydro-pyrrol-2-one] showed a melting point of 279 °C. For the same molecule, the EC50 with HCV replicon Luc Neo ET was below 1000 nM. The molecule further showed an EC50 on HCV NS5B genotype 1b (setting [2]) below 1000 nM.

Molecule `CCc1ccc(C2C(C(=O)c3ccc(C(C)C)cc3)=C(O)C(=O)N2c2ccc(C)nn2)cc1` (stereo not drawn) [Example 105, 5-(4-ethyl-phenyl)-3-hydroxy-4-(4-isopropyl-benzoyl)-1-(6-methyl-pyridazin-3-yl)-1,5-dihydro-pyrrol-2-one] yielded a melting point of 282 to 284 °C. In the data set with HCV replicon Luc Neo ET, the EC50 was below 1000 nM. This molecule also displayed an EC50 on HCV NS5B genotype 1b (setting [2]) below 1000 nM.

Molecule `CC(C)c1ccc(C(=O)C2=C(O)C(=O)N(c3ccc(Sc4ccc([N+](=O)[O-])cc4)nn3)C2c2ccc(OC(F)(F)F)cc2)cc1` (stereo not drawn) [Example 119, 3-hydroxy-4-(4-isopropyl-benzoyl)-1-[6-(4-nitro-phenylsulfanyl)-pyridazin-3-yl]-5-(4-trifluoromethoxy-phenyl)-1,5-dihydro-pyrrol-2-one] gave a melting point of 194 to 209 °C. The EC50 in the data set on HCV replicon Luc Neo ET is below 10000 nM. The molecule also came in with an EC50 at HCV NS5B genotype 1b (setting [2]) below 1000 nM.

On to `Cc1ccc(N2C(=O)C(O)=C(C(=O)c3ccc(C(C)C)cc3)C2c2ccc(OC3CC3)cc2)nn1` (stereo not drawn) [Example 120, 5-(4-cyclopropoxy-phenyl)-3-hydroxy-4-(4-isopropyl-benzoyl)-1-(6-methyl-pyridazin-3-yl)-1,5-dihydro-pyrrol-2-one], for which the melting point lay in the range of 285 to 288 °C. For the same molecule, in the data set with HCV replicon Luc Neo ET, the EC50 was below 1000 nM. This molecule displayed an EC50 on HCV NS5B genotype 1b (setting [2]) below 1000 nM.

In turn, `Cc1ccc(N2C(=O)C(O)=C(C(=O)c3ccc(C(C)(C)C)cc3)C2c2ccc(OC(F)(F)F)cc2)nn1` (stereo not drawn) [Example 123, 4-(4-tert-butyl-benzoyl)-3-hydroxy-1-(6-methyl-pyridazin-3-yl)-5-(4-trifluoromethoxy-phenyl)-1,5-dihydro-pyrrol-2-one] showed a melting point of 262 to 265 °C. Further, the EC50 in the data set on HCV replicon Luc Neo ET is below 1000 nM. On HCV NS5B genotype 1b (setting [2]), this molecule came in with an EC50 below 1000 nM.

Consider `Cc1ccc(N2C(=O)C(O)=C(C(=O)c3ccc(C4CCCCC4)cc3)C2c2ccc(OC(F)(F)F)cc2)nn1` (stereo not drawn) [Example 125, 4-(4-cyclohexyl-benzoyl)-3-hydroxy-1-(6-methyl-pyridazin-3-yl)-5-(4-trifluoromethoxy-phenyl)-1,5-dihydro-pyrrol-2-one], for which the melting point was in the range of 283 to 286 °C. The EC50 with HCV replicon Luc Neo ET was below 10000 nM. The same molecule returned an EC50 at HCV NS5B genotype 1b (setting [2]) below 10000 nM.

In turn, `Cc1cnc(N2C(=O)C(O)=C(C(=O)c3ccc(C(C)C)cc3)C2c2ccc(OC(F)(F)F)cc2)cn1` (stereo not drawn) [Example 128, 3-hydroxy-4-(4-isopropyl-benzoyl)-1-(5-methyl-pyrazin-2-yl)-5-(4-trifluoromethoxy-phenyl)-1,5-dihydro-pyrrol-2-one] registered a melting point of 266 to 268 °C. For the same molecule, in the data set with HCV replicon Luc Neo ET, the EC50 is below 10000 nM. Further, the EC50 on HCV NS5B genotype 1b (setting [2]) is below 1000 nM.

As for `COc1ccc(N2C(=O)C(O)=C(C(=O)c3ccc(C(C)C)cc3)C2c2ccc(OC(F)(F)F)cc2)nn1` (stereo not drawn) [Example 129, 3-hydroxy-4-(4-isopropyl-benzoyl)-1-(6-methoxy-pyridazin-3-yl)-5-(4-trifluoromethoxy-phenyl)-1,5-dihydro-pyrrol-2-one], the melting point turned out to be 271 °C. In addition, in the data set on HCV replicon Luc Neo ET, the EC50 is below 10000 nM. Further, at HCV NS5B genotype 1b (setting [2]), the EC50 was below 1000 nM.

Regarding `CC(C)c1ccc(C(=O)C2=C(O)C(=O)N(c3cccn(C)c3=O)C2c2ccc(OC(F)(F)F)cc2)cc1` (stereo not drawn) [Example 130, 3-[3-hydroxy-4-(4-isopropyl-benzoyl)-2-oxo-5-(4-trifluoromethoxy-phenyl)-2,5-dihydro-pyrrol-1-yl]-1-methyl-1H-pyridin-2-one], the melting point worked out at 207 °C. The EC50 in the data set on HCV replicon Luc Neo ET was below 10000 nM. The EC50 on HCV NS5B genotype 1b (setting [2]) was below 10000 nM.

(Values after patent US20120128630A1, “1-(6 MEMBERS AZO-HETEROCYCLIC)-PYRROLIN-2-ONE COMPOUNDS AS INHIBITORS OF HEPATITIS C NS5B POLYMERASE, THE PHARAMACEUTICAL COMPOSITION THEREOF AND THEIR THERAPEUTIC USE” (priority 2009, published 2012).)
